Results from the NIST ThermoML archive (doi:10.1016/j.jct.2012.04.011).
± gives the expanded uncertainty stated by the source.

experiment: not given; conditions: 298.15 K; 101.33 kPa; Liquid; Vibrating tube method

| mass density [kg/m3] | SMILES |
| --- | --- |
| 773.78 ± 0.24 | C1CCCCC1 [cyclohexane] |
| 764.92 ± 0.24 | CC1CCCCC1 [methylcyclohexane] |

| SMILES | mass density [kg/m3] |
| --- | --- |
| Cc1ccccc1 [toluene] | 862.02 ± 0.24 |

experiment: refractive index (Na D-line) (dimensionless); conditions: 298.2 K; 101.33 kPa; Liquid; Standard Abbe refractometry

| refractive index | SMILES |
| --- | --- |
| 1.4234 ± 0.0007 | C1CCCCC1 [cyclohexane] |
| 1.4198 ± 0.0007 | CC1CCCCC1 [methylcyclohexane] |
| 1.3325 ± 0.0007 | O [water] |

| SMILES | refractive index |
| --- | --- |
| Cc1ccccc1 [toluene] | 1.4938 ± 0.0007 |

experiment: relative permittivity at zero frequency (dimensionless); conditions: 298.2 K; 101.33 kPa; Liquid; Parallel plate capacitor

| relative permittivity at zero frequency | SMILES |
| --- | --- |
| 2.02 ± 0.01 | C1CCCCC1 [cyclohexane] |
| 2.01 ± 0.01 | CC1CCCCC1 [methylcyclohexane] |

| SMILES | relative permittivity at zero frequency |
| --- | --- |
| Cc1ccccc1 [toluene] | 2.38 ± 0.01 |
